# Entries after “also recorded” stand apart in the source; their conditions may differ.
# How the values were obtained:
# [1] = tested on: dopaminergic neurons; experiment: Tyrosine hydroxylase, transferrin and oxidized thiol imaging in dopaminergic neurons treated with rotenone; assay type: cell-based; conditions: cells treated with rotenone vs control
# [2] = tested on: substantia nigra; experiment: Imaging of carbonyls in substantia nigra of rotenone-treated animals; assay type: in vivo; conditions: rotenone-treated animal vs control animal
# From the text: To detect carbonyls in fixed slices and perform microscopy studies, fluorescein-conjugated hydrazine is used (FITC-hydrazine, please see FIG. 19). As a positive control, carbonyl formation is induced by metal-catalyzed oxidation, treating the samples with iron (Fe^3+) and ascorbate (Amici, A, Levine, R L, Tsai, L and Stadtman, E R, (1989) Conversion of amino acid residues in proteins and amino acid homopolymers to carbonyl derivatives by metal-catalyzed oxidation reactions. J Biol Chem 264: 3341-6 and Halliwell, B and Gutteridge, J M, (1990) Role of free radicals and catalytic metal ions in human disease: an overview. Methods Enzymol 186: 1-85). In the confocal studies, a negative control can be performed preincubating the fixed slices with an excess of DNPH.
# Protein carbonyls. Another oxidative modification of proteins is carbonyl formation. Typically, carbonyls are assayed by reacting protein homogenates with hydrazine compounds (e.g., dinitrophenylhydrazine; DNPH) and then measuring the reaction product spectrophotometrically, or with antibody-based techniques. We have used a fluorescent hydrazine compound to directly label carbonyls (FIG. 19). As with thiol labeling, this technique is amenable to FRET so that candidate proteins can be examined for carbonyl content and changes therein in pesticide intoxication.
# [3] = tested on: dopaminergic neurons of the substantia nigra; experiment: Histological labeling of oxidized thiols in substantia nigra of rotenone-treated rats; assay type: in vivo, Lewis rats; conditions: chronic rotenone treatment vs control animal
# Method: (§1) Histological labeling of oxidized thiols. Brains were fixed in 4% paraformaldehyde and processed as described (Betarbet, R.; Sherer, T. B.; MacKenzie, G.; Garcia-Osuna, M.; Panov, A. V.; Greenamyre, J. T. Chronic systemic pesticide exposure reproduces features of Parkinson's disease. Nat Neurosci 3:1301-1306; 2000). After cutting with a freezing microtome, sections were treated immediately in alkylating buffer (100 mM IAM, 100 mM NEM, TrisHCl, pH 6.8) to block free thiols. For cell culture studies, cells were seeded and cultured on coverslips, then fixed in 4% paraformaldehyde, 0.02% Triton-X100 supplemented with 100 mM IAM, 100 mM NEM to block free thiols. After three washes in PBS—10 minutes at room temperature—disulfides were reduced with 25 mM TCEP in PBS for 20 minutes. TCEP was omitted in the control reaction. The samples were labeled with CPM (0.5 mM final) in TrisHCl (0.1 M, pH 6.8) and then washed three times, for 10 minutes, in PBS.
# Following the thiol labeling, immunohistochemistry was performed according to standard procedures. Briefly, after a blocking step in 10% serum, samples were incubated over-night with primary antibody (tyrosine hydroxylase, Mab318, Chemicon, Temecula, Calif., 1:2000; OX42, MCA 275G AbD Serotec, Oxford, UK, 1:150; GFAP, Mab 3402, Chemicon, Temecula, Calif., 1:1000). Fluorescently labeled secondary antibodies were used for detection. […]
# [4] = tested on: Hsp60; experiment: FRET by acceptor photobleaching between FITC-NN carbonyl label and Cy3 anti-Hsp60 antibody in cells; assay type: cell-based; conditions: rotenone-treated cells
# From the text: Anti-Hsp60 (Stressgen, used at 1:500) was conjugated with Cy3. The procedure can be carried out in a 96-well plate, which can be analyzed with a micro-plate spectrofluorometer. FRET between FITC-NN and a Cy3-labeled specific antibody can be studied to determine if the two fluorophores are in close proximity (<50 Å) and therefore if the protein of interest is oxidized. […] First, the acceptor fluorophore is photobleached over four cycles. In FIG. 3, Cy3 was the acceptor fluorophore and the protein of interest was Hsp60, where Cy3 conjugated with anti-Hsp60 antibody. Second, the emission of the acceptor fluorophore and of the donor fluorophore are determined and compared. If a significant increase in the donor emission is observed after photobleaching the acceptor fluorophore, then the two fluorophores are determined to be in close proximity. […] Therefore, the two fluorophores are in close proximity and indicate that the protein of interest, here Hsp60, is oxidized.
# [5] = tested on: transferrin; experiment: Reducing and non-reducing Western blots of transferrin in substantia nigra; assay type: in vivo; conditions: chronic rotenone treatment vs control animal
# From the text: In the lower panel, left and right, a loading control (39 kDa subunit of mitochondrial complex I) ensures that the initial amount of protein was the equal for all the lanes.
# [6] = tested on: mitochondrial proteins containing oxidized thiols; experiment: Thiol-sepharose affinity purification of oxidized mitochondrial proteins from brain regions of rotenone-treated rats; assay type: in vivo, Lewis rats; conditions: rotenone animals vs control
# From the text: Preparation of affinity resin. Activated thiol-sepharose resin 4B (Sigma, St. Louis, Mo., USA) was used in previous studies to purify thiol-containing proteins (Egorov, T. A.; Svenson, A.; Ryden, L.; Carlsson, J. A rapid and specific method for isolation of thiol-containing peptides from large proteins by thiol-disulfide exchange on a solid support. Proc Natl Acad Sci USA 72:3029-3033; 1975); the resin extent of binding was 1 micromol of thiols per mL of medium. The resin rehydrated in milliQ-grade distilled water, 30 minutes, gently shaking at 4° C. […]
# In the first technique (FIG. 20), a starting sample (e.g., purified mitochondria from the ventral midbrain of control and rotenone-treated rats) is homogenized and then free thiols are alkylated. […] At this point, the sample can be run over a thiol affinity column and the eluate can be analyzed by SDS-PAGE and Coomassie staining. In an alternative strategy, after the reduction the sample can be reacted with ICAT (isotope coded affinity tag) reagents for mass spectrometry (Gygi, S P, Rist, B, Gerber, S A, Turecek, F, Gelb, M H and Aebersold, R, (1999) Quantitative analysis of complex protein mixtures using isotope-coded affinity tags. Nat Biotechnol 17: 994-9).
# [7] = tested on: human neuroblastoma cells; experiment: Fluorescent labeling of protein carbonyls (FITC-hydrazide) in rotenone-treated cells; assay type: cell-based; conditions: 50 nM rotenone, 24 hours, vs vehicle-treated cells
# Method: Cells are fixed in cold methanol for 10 minutes at −20° C. Paraformaldehyde and other […] group-containing (and therefore carbonyl group-containing) fixatives should be avoided. The method can be successfully applied to tissues as well.
# Carbonyls are labeled with fluorescein-conjugated hydrazide (FITC-NN, FIG. 1, Molecular Probes, cat #F-121). F121 is prepared fresh in dimethyl-formamide. As the reaction between the hydrazine and the carbonyls occurs in acidic environment, the labeling is carried out in 50 mM sodium acetate (pH 4). FITC-NN is used 2 microM final; incubation is carried on 2 hours at room temperature.
# Samples are washed in phosphate buffer solution (PBS) for 5 minutes; this step is repeated three times.
# From this step onward, a classical immunohistochemistry staining can be performed to detect proteins of interest.
# Images are acquired with a laser scanning confocal microscope.
# [8] = tested on: SH-SY5Y human neuroblastoma cells; experiment: Histochemical detection of oxidized thiols (disulfides) with CPM in cells; assay type: cell-based; conditions: tBH 1 mM vs vehicle control
# Method: as §1
# Images were acquired using a laser scanning confocal microscope. The microscope was equipped with a spectral detector technology that provides precise wavelength separation of the emitted light, preventing light leakage between different fluorophores. The following detection ranges were used for each fluorophore: 450 nm-480 nm for UV probes; 515 nm-535 nm for Alexa488; 560 nm-574 nm for Cy3. […]
# [9] = tested on: thioredoxin-1 (trx-1); experiment: Redox western blot (10 kDa PEG-maleimide) of thioredoxin-1 in cells; assay type: cell-based; conditions: low millimolar concentrations of tBH
# Method: Western blot analysis to detect proteins with oxidized cysteines. Cells were lysed in alkylating buffer (0.1M TrisHCl pH 6.8, 1% SDS, 100 mM IAM, 100 mM NEM). The lysate was sonicated on ice to disrupt high molecular weight DNA and incubated 30 minutes at room temperature to allow total alkylation of free Cys residues. 200 μg of alkylated proteins were precipitated with 5 volumes of ice-cold acetone and resuspended in 50 microliters of Tris-SDS buffer (0.1M TrisHCl, pH 7.4, 1% SDS). Disulfides were reduced by adding TCEP 5 mM final concentration. The samples were incubated 20 minutes at room temperature to allow complete reduction of disulfides to thiols. TCEP was removed with Micro Bio-spin Chromatography columns 6 (BIORAD, Hercules, Calif.). After the filtration step, the samples were in about 50 μL of 10 mM TrisHCl pH 7.4 (volume was adjusted to 50 μL as necessary). SDS was added to a 1% final concentration.
# To label the previously oxidized (and now reduced) cysteines, polyethylene-glycol-conjugated maleimide (molecular weight 10 kDa, SunBio, Orinda, Calif.) was added to 50 micrograms of proteins, 1 mM final concentration, from a 10 mM stock in Tris-SDS buffer. After 1 hour incubation at room temperature, samples were precipitated with ice cold acetone and resuspended in 50 μL of SDS electrophoresis loading buffer. 10 μL (about 10 μg) were used for western blot analysis. […]
# [10] = tested on: thioredoxin-1 (trx-1); experiment: FRET between thiol-bound CPM and Alexa488-labeled trx-1 antibody in cells; assay type: cell-based; conditions: tBH-treated cells vs baseline
# Method: as §1, with “The samples were labeled with CPM (0.5 mM final) in TrisHCl (0.1 M, pH 6.8) and then washed three times, for 10 minutes, in PBS.” left out
# Direct FRET was detected by reading the acceptor emission (FITC derivative conjugated antibody) at 520 nm while exciting the donor (CPM) with the 405 nm laser. Alternatively, FRET was detected by acquiring the donor (CPM) emission before and after photobleaching of the acceptor fluorophore (Alexa488) with the 488 nm laser. FRET efficiency (Feff) was calculated by the confocal software (version 1.5) according to the equation Feff=1−(empre/empost), where Feff=FRET efficiency, empre=donor emission prebleaching, empost=donor emission post bleaching.
Compound,"transferrin (trf) level, colocalized with oxidized thiols by FRET [1]",carbonyls in substantia nigra [2],oxidized thiols in nigrostriatal dopaminergic (TH-positive) neurons [3],FITC (donor) emission after photobleaching of Cy3 acceptor; indicates Hsp60 is oxidized [4],oxidized transferrin form in non-reducing gel [5],"oxidized mitochondrial proteins eluted from thiol affinity chromatography, striatum ([6]; striata)","oxidized mitochondrial proteins eluted from thiol affinity chromatography, substantia nigra ([6]; substantia nigra (ventral midbrain))",carbonyls (green fluorescence) [7],oxidized thiols (disulfides) labeling [8],thiol oxidation (disulfide formation) in trx-1 by redox western blot [9],FRET between CPM and Alexa488 trx-1 antibody (thiol oxidation of Trx-1) [10]
C=C(C)[C@H]1Cc2c(ccc3c2O[C@@H]2COc4cc(OC)c(OC)cc4[C@@H]2C3=O)O1 [rotenone],accumulation of transferrin,marked increase in carbonyls,remarkable and very selective increase in oxidized thiols; also recorded: marked increase in oxidized thiols,significant increase in FITC emission,higher molecular weight form,No major differences,marked increase in thiol oxidation; also recorded: dramatic increase in oxidized proteins; also recorded: striking increase of oxidized proteins,detectable increase; also recorded: large increase in carbonyls,,,
"CC(C)(C)OO [tBH, tert-butyl-hydroperoxide]",,,,,,,,,remarkable increase in disulfides; also recorded: dramatic increase of thiol labeling,quickly induced the formation of disulfides in trx-1; also recorded: induced thiol oxidation in thioredoxin-1,clear increase in the signal; also recorded: marked increase in direct FRET

# Source: patent US20110039277A1, “Methods of Labeling Proteins” (priority 2008, published 2011)
